US20240158446A1, “CYCLIC COMPOUND HAVING SELECTIVE INHIBITORY ACTION ON KRAS OVER HRAS AND NRAS” (CHUGAI SEIYAKU KABUSHIKI KAISHA, priority 2021, published 2024)

Tests used:
[1] = molecular target: GDP-bound NRAS wild-type protein (Homo sapiens, UniProt P01111); test: Binding to NRAS by surface plasmon resonance (SPR), Single Cycle Kinetics; details: ratio of KD for GDP-bound NRAS wild-type protein to KD for KRAS, SPR
[2] = test system: human lung cancer strain NCI-H441; test: cells; details: NCI-H441, 96 h, read-out: NCI-H441 IC50 (nM), NCI-H441 cell proliferation, 4 days, CellTiter-Glo;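 further: cell proliferation inhibition after four days measured by CellTiter-Glo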
[3] = molecular target: GDP-bound KRAS wild-type protein (Homo sapiens, UniProt P01116); test: Binding to KRAS by surface plasmon resonance (SPR), Single Cycle Kinetics; details: SPR, Single Cycle Kinetics, GDP-bound KRAS wild-type protein; read-out: KRAS KD
[4] = molecular target: GDP-bound HRAS wild-type protein (Homo sapiens, UniProt P01112); test: Binding to HRAS by surface plasmon resonance (SPR), Single Cycle Kinetics; details: ratio of KD for GDP-bound HRAS wild-type protein to KD for KRAS, SPR
Sequence of GDP-bound HRAS wild-type protein (P01112 whole entry): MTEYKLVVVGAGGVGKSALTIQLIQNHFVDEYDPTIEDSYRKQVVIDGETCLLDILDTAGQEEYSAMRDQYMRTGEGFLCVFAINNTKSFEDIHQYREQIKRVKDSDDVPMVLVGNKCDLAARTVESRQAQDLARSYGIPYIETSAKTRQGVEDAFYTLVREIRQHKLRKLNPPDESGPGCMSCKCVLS

Sequence of GDP-bound NRAS wild-type protein (P01111 whole entry): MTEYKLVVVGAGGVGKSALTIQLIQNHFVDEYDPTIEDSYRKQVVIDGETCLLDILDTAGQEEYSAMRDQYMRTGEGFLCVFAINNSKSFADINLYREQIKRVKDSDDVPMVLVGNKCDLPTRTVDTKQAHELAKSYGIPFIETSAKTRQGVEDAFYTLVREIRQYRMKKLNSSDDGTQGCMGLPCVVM
Sequence of GDP-bound KRAS wild-type protein (P01116 whole entry): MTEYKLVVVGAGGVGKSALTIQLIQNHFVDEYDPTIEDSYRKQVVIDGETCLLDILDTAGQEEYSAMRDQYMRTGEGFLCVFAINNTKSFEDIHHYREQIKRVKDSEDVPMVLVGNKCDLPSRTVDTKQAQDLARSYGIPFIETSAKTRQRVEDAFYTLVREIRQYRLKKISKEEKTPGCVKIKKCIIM

Structure (SMILES)	IC50 [2]	Kd [3]	NRAS/KRAS (KD ratio) [1]	HRAS/KRAS (KD ratio) [4]
CCO[C@@H]1C[C@H]2C(=O)NC3(CC(C)(C)C3)C(=O)N(C)[C@@H](C3CCCC3)C(=O)N(C)[C@H](C(=O)N(C)C)CC(=O)N(C)[C@@H](C)C(=O)N[C@@H]([C@@H](C)CC)C(=O)N(C)CC(=O)N(C)[C@H]3C/C=C\CCN(C3=O)[C@@H](Cc3ccc(C(F)(F)F)cc3)C(=O)N(C)CC(=O)N[C@@H](CCc3cc(F)c(C(F)(F)F)c(F)c3)C(=O)N2C1 [PP1641]	4.6 nM	0.098 nM	A (a compound having 10 or more and less than 20 is denoted as A)	A (a compound having 10 or more and less than 20 is denoted as A)
CCO[C@@H]1C[C@H]2C(=O)NC3(CC(C)(C)C3)C(=O)N(C)[C@@H](C3CCCC3)C(=O)N(C)[C@H](C(=O)N(C)CC)CC(=O)N(C)[C@@H](CC(F)F)C(=O)N[C@@H]([C@@H](C)CC)C(=O)N(C)CC(=O)N(C)[C@H]3C/C=C\CCN(C3=O)[C@@H](Cc3ccc(C(F)(F)F)cc3)C(=O)N(C)CC(=O)N[C@@H](CCc3cc(F)c(C(F)(F)F)c(F)c3)C(=O)N2C1 [PP1643]	1.6 nM	0.055 nM	A (a compound having 10 or more and less than 20 is denoted as A)	A (a compound having 10 or more and less than 20 is denoted as A)
CCO[C@@H]1C[C@H]2C(=O)NC3(CC(C)(C)C3)C(=O)N(C)[C@@H](C3CCCC3)C(=O)N(C)[C@H](C(=O)N(C)C)CC(=O)N(C)[C@@H](CC(F)(F)F)C(=O)N[C@@H]([C@@H](C)CC)C(=O)N(C)CC(=O)N(C)[C@H]3C/C=C\CCN(C3=O)[C@@H](Cc3ccc(C(F)(F)F)cc3)C(=O)N(C)CC(=O)N[C@@H](CCc3cc(F)c(C(F)(F)F)c(F)c3)C(=O)N2C1 [PP1644]	2.7 nM	0.038 nM	A (a compound having 10 or more and less than 20 is denoted as A)	A (a compound having 10 or more and less than 20 is denoted as A)
CCC[C@H]1C(=O)N[C@@H]([C@@H](C)CC)C(=O)N(C)CC(=O)N(C)[C@H]2C/C=C\CCN(C2=O)[C@@H](Cc2ccc(C(F)(F)F)cc2)C(=O)N(C)CC(=O)N[C@@H](CCc2cc(F)c(C(F)(F)F)c(F)c2)C(=O)N2C[C@H](OCC)C[C@H]2C(=O)NC2(CC(C)(C)C2)C(=O)N(C)[C@@H](C2CCCC2)C(=O)N(C)[C@H](C(=O)N(C)C)CC(=O)N1C [PP1645]	1.8 nM	0.04 nM	A (a compound having 10 or more and less than 20 is denoted as A)	A (a compound having 10 or more and less than 20 is denoted as A)
CCO[C@@H]1C[C@H]2C(=O)NC3(CC(C)(C)C3)C(=O)N(C)[C@@H](C3CCCC3)C(=O)N(C)[C@H](C(=O)N(C)CC)CC(=O)N(C)[C@@H](CC3CC3)C(=O)N[C@@H]([C@@H](C)CC)C(=O)N(C)CC(=O)N(C)[C@H]3C/C=C\CCN(C3=O)[C@@H](Cc3ccc(C(F)(F)F)cc3)C(=O)N(C)CC(=O)N[C@@H](CCc3cc(F)c(C(F)(F)F)c(F)c3)C(=O)N2C1 [PP1648]	2.1 nM	0.11 nM	A (a compound having 10 or more and less than 20 is denoted as A)	A (a compound having 10 or more and less than 20 is denoted as A)
CCCC[C@H]1C(=O)N[C@@H]([C@@H](C)CC)C(=O)N(C)CC(=O)N(C)[C@H]2C/C=C\CCN(C2=O)[C@@H](Cc2ccc(C(F)(F)F)cc2)C(=O)N(C)CC(=O)N[C@@H](CCc2cc(F)c(C(F)(F)F)c(F)c2)C(=O)N2C[C@H](OCC)C[C@H]2C(=O)NC2(CC(C)(C)C2)C(=O)N(C)[C@@H](C2CCCC2)C(=O)N(C)[C@H](C(=O)N(C)C)CC(=O)N1C [PP1649]	2.2 nM	0.064 nM	A (a compound having 10 or more and less than 20 is denoted as A)	B (a compound having 3 or more and less than 10 is denoted as B)
CCO[C@@H]1C[C@H]2C(=O)NC3(CC(C)(C)C3)C(=O)N(C)[C@@H](C3CCCC3)C(=O)N(C)[C@H](C(=O)N(C)CC)CC(=O)N(C)[C@@H](CC)C(=O)N[C@@H]([C@@H](C)CC)C(=O)N(C)CC(=O)N(C)[C@H]3C/C=C\CCN(C3=O)[C@@H](Cc3ccc(C(F)(F)F)cc3)C(=O)N(C)CC(=O)N[C@@H](CCc3ccc(C(F)(F)F)c(OC)c3)C(=O)N2C1 [PP1653]	1.6 nM	0.097 nM	A (a compound having 10 or more and less than 20 is denoted as A)	A (a compound having 10 or more and less than 20 is denoted as A)

Further lines, with some results ahead:

IC50 [2]	Kd [3]	Structure (SMILES)	NRAS/KRAS (KD ratio) [1]	HRAS/KRAS (KD ratio) [4]
44.8 nM	0.68 nM	CCO[C@@H]1C[C@H]2C(=O)NC3(CC(F)(F)C3)C(=O)N(C)[C@@H](C3CCCC3)C(=O)N(C)[C@H](C3CCC3)CC(=O)N(C)[C@@H](CC3CC3)C(=O)N[C@@H]([C@@H](C)CC)C(=O)N(C)CC(=O)N(C)[C@H]3C/C=C\CCN(C3=O)[C@@H](Cc3ccc(C(F)(F)F)cc3)C(=O)N(C)CC(=O)N[C@@H](CCc3cc(F)c(C(F)(F)F)c(F)c3)C(=O)N2C1 [PP1639]	A (a compound having 10 or more and less than 20 is denoted as A)	A (a compound having 10 or more and less than 20 is denoted as A)
2.8 nM	0.12 nM	CCC[C@H]1C(=O)N[C@@H]([C@@H](C)CC)C(=O)N(C)CC(=O)N(C)[C@H]2C/C=C\CCN(C2=O)[C@@H](Cc2ccc(C(F)(F)F)cc2)C(=O)N(C)CC(=O)N[C@@H](CCc2cc(F)c(C(F)(F)F)c(F)c2)C(=O)N2C[C@H](OCC)C[C@H]2C(=O)NC2(CC(C)(C)C2)C(=O)N(C)[C@@H](C2CCCC2)C(=O)N(C)[C@H](C(=O)N(C)CC)CC(=O)N1C [PP1646]	A (a compound having 10 or more and less than 20 is denoted as A)	A (a compound having 10 or more and less than 20 is denoted as A)
2.3 nM	0.079 nM	CCO[C@@H]1C[C@H]2C(=O)NC3(CC(C)(C)C3)C(=O)N(C)[C@@H](C3CCCC3)C(=O)N(C)[C@H](C(=O)N(C)C)CC(=O)N(C)[C@@H](CC3CCC3)C(=O)N[C@@H]([C@@H](C)CC)C(=O)N(C)CC(=O)N(C)[C@H]3C/C=C\CCN(C3=O)[C@@H](Cc3ccc(C(F)(F)F)cc3)C(=O)N(C)CC(=O)N[C@@H](CCc3cc(F)c(C(F)(F)F)c(F)c3)C(=O)N2C1 [PP1651]	A (a compound having 10 or more and less than 20 is denoted as A)	B (a compound having 3 or more and less than 10 is denoted as B)
1.6 nM	0.083 nM	CCO[C@@H]1C[C@H]2C(=O)NC3(CC(C)(C)C3)C(=O)N(C)[C@@H](C3CCCC3)C(=O)N(C)[C@H](C(=O)N(C)CC)CC(=O)N(C)[C@@H](CC(F)F)C(=O)N[C@@H]([C@@H](C)CC)C(=O)N(C)CC(=O)N(C)[C@H]3C/C=C\CCN(C3=O)[C@@H](Cc3ccc(C(F)(F)F)cc3)C(=O)N(C)CC(=O)N[C@@H](CCc3ccc(C(F)(F)F)c(OC)c3)C(=O)N2C1 [PP1655]	A (a compound having 10 or more and less than 20 is denoted as A)	A (a compound having 10 or more and less than 20 is denoted as A)
